Test results published in patent EP0288278B1, “Chemical derivatives of GHL-CU” (PROCYTE CORPORATION, priority 1987, dated 1994).

Test system: incision wounds
Test: Wound healing of incision wounds in mice
Type: in vivo
Conditions: incision wounds swabbed daily, scored after 5 days
From the text: In mice, incision wounds to the flanks (six 1.5 cm wounds per animal) were swabbed daily with either a solution containing GHL-Cu (100 micrograms per mL) in phosphate-buffered saline (PBS) or PBS alone (6 animals each group). After 5 days, the wounds were scored 1.0 for complete closure, 0.5 for partial closure, and 0.0 for non-closure.

## glycyl-L-histidyl-L-lysine n-stearyl ester: copper (II)
  healing of wounds in mice: significantly enhances the wound-healing process

## glycyl-L-histidyl-L-lysine n-palmityl ester: copper (II)
  healing of wounds in mice: significantly enhances the wound-healing process
